The test concerns calf thymus (CT) DNA. Format: binding. The note with it: for ΔTm (° C.) after incubation at 37° C. for 0 h / ΔTm (° C.) after incubation at 37° C. for 18 h / ΔTm (° C.) after incubation at 37° C. for 36 h: [PBD]:[DNA] molar ratio 1:5, CT-DNA 100 μM, ligand 20 μM, 10 mM sodium phosphate + 1 mM EDTA, pH 7.00; for ΔTm (° C.) after incubation at 37° C. for 0 h: 0 h incubation at 37° C.; for ΔTm (° C.) after incubation at 37° C. for 18 h: 18 h incubation at 37° C.; for ΔTm (° C.) after incubation at 37° C. for 36 h: 36 h incubation at 37° C. The procedure: The DNA binding affinity of the novel C2 di-fluoro PBD dimers (VIIa-c) was investigated by thermal denaturation studies using calf thymus (CT) DNA (Jones, G. B.; Davey, C. L.; Jenkins, T. C.; Kamal, A.; Kneale, G. G.; Neidle, S.; Webster, G. D.; Thurston, D. E. Anti-Cancer Drug Des. 1990, 5, 249. McConnaughie, A. W.; Jenkins, T. C. J. Med. Chem. 1995, 38, 3488). The studies for these compounds (VIIa-c) were carried out by DNA/ligand molar ratios of 5:1. The increase in the helix melting temperature. (ΔTm) for each compound was examined after 0, 18 and 36 h incubation at 37° C.

Turning to `COc1cc2c(cc1O)N=CC1CCCN1C2=O` (stereo not shown) [DC-81, reference compound], the “ΔTm (° C.) after incubation at 37° C. for 0 h” value (“ΔTm … for 0 h” for short) was found to be 0.3 °C, the “ΔTm (° C.) after incubation at 37° C. for 18 h” value (“ΔTm … for 18 h” for short) amounted to 0.7 °C and the “ΔTm (° C.) after incubation at 37° C. for 36 h” value (from here on “ΔTm … for 36 h”) is 0.7 °C. The “ΔTm (increase in the helix melting temperature)” value (under identical experimental conditions, DNA/ligand molar ratio 5:1, incubation time not stated) amounted to 0.7 °C.
Take `COc1ccc2c(c1)C(=O)N1CC(F)(F)C(OCCCOC3[C@@H]4C=Nc5ccc(OC)cc5C(=O)N4CC3(F)F)[C@@H]1C=N2` (stereo partly drawn) [VIIa, 1,1′-{[(propane-1,3-diyl)]dioxy}bis[(11aS)-2,2-difluoro-7-methoxy-1,2,3,11a-tetrahydro-5H-pyrrolo[2,1-c][1,4]benzodiazepin-5-one]]: the “ΔTm … for 0 h” value was 13.1 °C, the “ΔTm … for 18 h” value turned out to be 23.4 °C and the “ΔTm … for 36 h” value is 27.5 °C.
On to “1,1′-{[(pentane-1,5-diyl)]dioxy}bis[(11aS)-2,2-difluoro-7-methoxy-1,2,3,11a-tetrahydro-5H-pyrrolo[2,1-c][1,4]benzodiazepin-5-one [VIIc]”, for which the “ΔTm … for 0 h” value was 18.9 °C, the “ΔTm … for 18 h” value amounted to 24.5 °C and the “ΔTm … for 36 h” value amounted to 28.4 °C.
As to “1,1′-{[(butane-1,4-diyl)]dioxy}bis[(11aS)-2,2-difluoro-7-methoxy-1,2,3,11a-tetrahydro-5H-pyrrolo[2,1-c][1,4]benzodiazepin-5-one [VIIb]”, the “ΔTm … for 0 h” value was determined as 4.2 °C, the “ΔTm … for 18 h” value amounted to 23.4 °C and the “ΔTm … for 36 h” value was 24.7 °C.

The record behind these values is patent US7476664B2, “Bis-2-difluoro-pyrrolo[2,1-C][1,4]benzodiazepine dimers” (priority 2007, dated 2009).
